Reference: PubChem BioAssay (NCI)
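Here, GI50 denotes the concentration required for 50% inhibition of growth. The concentration for full growth arrest is given as TGI.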

Tests used:
Experiment in all cases: inhibition of tumour cell growth, NCI panel, 384-well format; in the data active = GI50 below about 0.43 µM; inactive = the rest
T-47D breast = test system: T-47D breast
A549 NSCLC = test system: A549 NSCLC
HOP-62 NSCLC = test system: HOP-62 NSCLC
NCI-H460 NSCLC = test system: NCI-H460 NSCLC
SK-MEL-5 melanoma = test system: SK-MEL-5 melanoma
HOP-92 NSCLC = test system: HOP-92 NSCLC
K-562 leukemia = test system: K-562 leukemia
SK-MEL-28 melanoma = test system: SK-MEL-28 melanoma
OVCAR-4 ovarian = test system: OVCAR-4 ovarian
UO-31 renal = test system: UO-31 renal
DU-145 prostate = test system: DU-145 prostate
COLO 205 colon = test system: COLO 205 colon
NCI-H322M lung = test system: NCI-H322M lung
SF-268 CNS = test system: SF-268 CNS
HT29 colon = test system: HT29 colon
MDA-MB-231 breast = test system: MDA-MB-231 breast
UACC-62 melanoma = test system: UACC-62 melanoma
ACHN renal = test system: ACHN renal
SK-MEL-2 melanoma = test system: SK-MEL-2 melanoma
SR leukemia = test system: SR leukemia
SF-539 CNS = test system: SF-539 CNS
NCI-H226 lung = test system: NCI-H226 lung
NCI-H522 lung = test system: NCI-H522 lung
OVCAR-5 ovarian = test system: OVCAR-5 ovarian
HCT-116 colon = test system: HCT-116 colon
CAKI-1 renal = test system: CAKI-1 renal
HCC-2998 colon = test system: HCC-2998 colon
A498 renal = test system: A498 renal
KM12 colon = test system: KM12 colon
UACC-257 melanoma = test system: UACC-257 melanoma
RPMI-8226 leukemia = test system: RPMI-8226 leukemia
TK-10 renal = test system: TK-10 renal
NCI-H23 lung = test system: NCI-H23 lung
MDA-MB-468 breast = test system: MDA-MB-468 breast
CCRF-CEM leukemia = test system: CCRF-CEM leukemia
U251 glioblastoma = test system: U251 glioblastoma
SF-295 CNS = test system: SF-295 CNS
PC-3 prostate = test system: PC-3 prostate
HL-60(TB) leukemia = test system: HL-60(TB) leukemia
SW-620 colon = test system: SW-620 colon
SNB-19 CNS = test system: SNB-19 CNS
MALME-3M melanoma = test system: MALME-3M melanoma
LOX IMVI melanoma = test system: LOX IMVI melanoma
MCF7 breast = test system: MCF7 breast
HS 578T breast = test system: HS 578T breast
EKVX NSCLC = test system: EKVX NSCLC
SNB-75 CNS = test system: SNB-75 CNS

Cc1ccc2c(Nc3cccc(Cl)c3F)ncc(NC(=O)c3csc4c(N)ncnc34)c2c1
16.3 µM: TGI (MDA-MB-231 breast)
23.1 µM: TGI (SK-MEL-5 melanoma)
0.0923 µM: TGI (SK-MEL-28 melanoma)
> 100 µM: TGI (T-47D breast) | TGI (A549 NSCLC) | TGI (HOP-62 NSCLC) | TGI (NCI-H460 NSCLC) | TGI (K-562 leukemia) | TGI (OVCAR-4 ovarian) | TGI (UO-31 renal) | TGI (DU-145 prostate) | TGI (NCI-H322M lung) | TGI (HT29 colon) | TGI (ACHN renal) | TGI (SF-539 CNS) | TGI (NCI-H226 lung) | TGI (OVCAR-5 ovarian) | TGI (CAKI-1 renal) | TGI (U251 glioblastoma) | TGI (SF-295 CNS) | TGI (PC-3 prostate) | TGI (SW-620 colon) | TGI (SNB-19 CNS) | TGI (MCF7 breast) | TGI (EKVX NSCLC) | TGI (SNB-75 CNS)
19.8 µM: TGI (HCT-116 colon)
59 µM: TGI (NCI-H522 lung)
12.8 µM: TGI (HL-60(TB) leukemia)
99.4 µM: TGI (KM12 colon)
inactive: GI50 (T-47D breast) 19.5 µM | GI50 (A549 NSCLC) 17.5 µM | GI50 (HOP-62 NSCLC) 11.5 µM | GI50 (NCI-H460 NSCLC) 13 µM | GI50 (HOP-92 NSCLC) 0.542 µM | GI50 (K-562 leukemia) 0.592 µM | GI50 (OVCAR-4 ovarian) 44.6 µM | GI50 (DU-145 prostate) 22 µM | GI50 (NCI-H322M lung) 17.4 µM | GI50 (SF-268 CNS) 21.9 µM | GI50 (ACHN renal) 12.7 µM | GI50 (SR leukemia) 15.1 µM | GI50 (SF-539 CNS) 29.1 µM | GI50 (NCI-H226 lung) 0.978 µM | GI50 (NCI-H522 lung) 13.1 µM | GI50 (CAKI-1 renal) 0.577 µM | GI50 (A498 renal) 3.07 µM | GI50 (KM12 colon) 0.54 µM | GI50 (RPMI-8226 leukemia) 1.6 µM | GI50 (TK-10 renal) 8.61 µM | GI50 (MDA-MB-468 breast) 18.3 µM | GI50 (CCRF-CEM leukemia) 15 µM | GI50 (U251 glioblastoma) 22.3 µM | GI50 (SF-295 CNS) 93.7 µM | GI50 (PC-3 prostate) 57.3 µM | GI50 (SW-620 colon) 0.721 µM | GI50 (SNB-19 CNS) 55 µM | GI50 (MCF7 breast) 7.47 µM | GI50 (HS 578T breast) 0.931 µM | GI50 (EKVX NSCLC) 10.8 µM | GI50 (SNB-75 CNS) 33.6 µM
63.4 µM: TGI (HS 578T breast)
1.18 µM: TGI (LOX IMVI melanoma)
7.97 µM: TGI (HOP-92 NSCLC)
34.5 µM: TGI (CCRF-CEM leukemia)
4.46 µM: TGI (NCI-H23 lung)
0.569 µM: TGI (UACC-257 melanoma)
0.148 µM: TGI (SK-MEL-2 melanoma)
82.8 µM: TGI (SR leukemia)
43 µM: TGI (A498 renal)
75.8 µM: TGI (TK-10 renal)
52.4 µM: TGI (MDA-MB-468 breast)
0.209 µM: TGI (UACC-62 melanoma)
19.3 µM: TGI (COLO 205 colon)
0.0436 µM: TGI (MALME-3M melanoma)
73.7 µM: TGI (SF-268 CNS)
0.537 µM: TGI (HCC-2998 colon)
active: GI50 (SK-MEL-5 melanoma) 0.0518 µM | GI50 (SK-MEL-28 melanoma) 0.0179 µM | GI50 (UO-31 renal) 0.258 µM | GI50 (COLO 205 colon) 0.0242 µM | GI50 (HT29 colon) 0.127 µM | GI50 (MDA-MB-231 breast) 0.0195 µM | GI50 (UACC-62 melanoma) 0.0251 µM | GI50 (SK-MEL-2 melanoma) 0.0346 µM | GI50 (OVCAR-5 ovarian) 0.178 µM | GI50 (HCT-116 colon) 0.162 µM | GI50 (HCC-2998 colon) 0.115 µM | GI50 (UACC-257 melanoma) 0.0668 µM | GI50 (NCI-H23 lung) 0.0761 µM | GI50 (HL-60(TB) leukemia) 0.0159 µM | GI50 (MALME-3M melanoma) 0.0124 µM | GI50 (LOX IMVI melanoma) 0.0418 µM
18.5 µM: TGI (RPMI-8226 leukemia)
